According to US20230140216A1, “COMBINATION THERAPY FOR TREATING MPS1” (GAIN THERAPEUTICS SA, priority 2020, published 2023):

What follows are compounds tested against T1, Recombinant human α-L-iduronidase protein (Homo sapiens, UniProt P35475) (assay: Differential scanning fluorimetry (DSF) thermal stabilization). Conditions: synthetized Examples 38-94; ΔTm class.
T1 construct: purchased R&D
T1 sequence (P35475 28-653): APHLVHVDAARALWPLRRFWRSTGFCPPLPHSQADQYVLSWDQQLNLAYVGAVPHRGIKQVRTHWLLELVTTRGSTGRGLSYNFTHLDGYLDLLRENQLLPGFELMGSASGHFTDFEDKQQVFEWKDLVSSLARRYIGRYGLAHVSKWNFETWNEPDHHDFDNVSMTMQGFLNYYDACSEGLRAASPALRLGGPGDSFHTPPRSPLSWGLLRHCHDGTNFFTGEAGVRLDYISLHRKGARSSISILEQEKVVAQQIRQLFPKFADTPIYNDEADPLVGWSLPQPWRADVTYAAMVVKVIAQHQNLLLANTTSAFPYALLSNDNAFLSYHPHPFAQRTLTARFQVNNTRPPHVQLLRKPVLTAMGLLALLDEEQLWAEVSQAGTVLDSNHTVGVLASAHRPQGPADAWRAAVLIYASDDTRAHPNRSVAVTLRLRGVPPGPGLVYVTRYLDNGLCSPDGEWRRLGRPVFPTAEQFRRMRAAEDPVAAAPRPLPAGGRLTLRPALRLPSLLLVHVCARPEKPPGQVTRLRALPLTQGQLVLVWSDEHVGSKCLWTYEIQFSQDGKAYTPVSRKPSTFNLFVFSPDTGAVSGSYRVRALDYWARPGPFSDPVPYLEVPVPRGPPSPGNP
Format: binding
Description: The capacity of Compounds of the Disclosure to stabilize α-L-iduronidase was assessed by differential scanning fluorimetry technique. The thermal denaturation of purified human native enzyme was monitored in the presence of the extrinsic fluorescent probe SYPRO Orange (Sigma-Aldrich, St. Louis, MO). The tested compounds were dissolved in 100% DMSO and diluted into the protein buffer to achieve final concentrations of 1% DMSO.
Recombinant human α-L-iduronidase protein (purchased from R&D) 12.5 µL of 1.5 µM in 100 mM Hepes 20 mM MgCl2 pH 7 (protein final concentration 0.75 µM) with Sypro Orange 10X and 12.5 µl of the different compound solutions were dispensed into 96-well PCR-plates. The intensity of SYPRO Orange fluorescence after a systematic increase of temperature was monitored in the Roche LightCycler® 480 II device (Roche Diagnostics).
The capacity to stabilize α-L-iduronidase is denoted as follows: • ΔTm GALC > 1 is shown as A; • ΔTm GALC between 0.5 and 1 is shown as B; • ΔTm GALC between 0.1 and 0.5 is shown as C; and • ΔTm GALC less than 0.1 is shown as D.
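Also: Classes count stabilization of α-L-iduronidase despite the GALC label.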

**Q.** For Cc1csc(N(C)C(=O)CN(C)Cc2nc3c(C)csc3c(=O)[nH]2)n1 [Example 48, N-methyl-2-(methyl((7-methyl-4-oxo-3,4-dihydrothieno[3,2-d]pyrimidin-2-yl)methyl)amino)-N-(4-methylthiazol-2-yl)acetamide], which “DSF Activity range” value is on record?
**A.** Its value is “C (ΔTm GALC between 0.1 and 0.5 is shown as C)”.

**Q.** With CCN(CC(=O)N(C)c1c(Cl)cccc1Cl)Cc1nc2c(C)csc2c(=O)[nH]1 [Example 49, N-(2,6-dichlorophenyl)-2-(ethyl((7-methyl-4-oxo-3,4-dihydrothieno[3,2-d]pyrimidin-2-yl)methyl)amino)-N-methylacetamide] as the compound, how does the “DSF Activity range” value read?
**A.** Its value is “C (ΔTm GALC between 0.1 and 0.5 is shown as C)”.

**Q.** How did the “DSF Activity range” value turn out when Cc1csc2c(=O)[nH]c(CN(C)CC(=O)N(C)c3cccc(F)c3)nc12 [Example 50] was run?
**A.** The value was “B (ΔTm GALC between 0.5 and 1 is shown as B)”.

**Q.** For Cc1cc2nc(CN(C)CC(=O)N(C)c3cccc(F)c3)[nH]c(=O)c2s1 [Example 51], which “DSF Activity range” value is on record?
**A.** The value was “C (ΔTm GALC between 0.1 and 0.5 is shown as C)”.

**Q.** Which “DSF Activity range” value does the source give for Cc1cc2nc(CN(C)CC(=O)N3CCc4ccccc43)[nH]c(=O)c2s1 [Example 52] here?
**A.** The value was “B (ΔTm GALC between 0.5 and 1 is shown as B)”.

**Q.** For Cc1cc2nc(CN(C)CC(=O)N3Cc4ccccc4C3)[nH]c(=O)c2s1 [Example 53], which “DSF Activity range” value is on record?
**A.** The value was “B (ΔTm GALC between 0.5 and 1 is shown as B)”.

**Q.** With Cc1cc2nc(CN(C)CC(=O)N(C)c3ccc(Cl)c(Cl)c3)[nH]c(=O)c2s1 [Example 55, N-(3,4-dichlorophenyl)-N-methyl-2-(methyl((6-methyl-4-oxo-3,4-dihydrothieno[3,2-d]pyrimidin-2-yl)methyl)amino)acetamide] as the compound, how does the “DSF Activity range” value read?
**A.** Its value is “C (ΔTm GALC between 0.1 and 0.5 is shown as C)”.

**Q.** Which “DSF Activity range” value does the source give for CN(CC(=O)N1Cc2ccccc2C1)Cc1nc2ccc(F)cc2c(=O)[nH]1 [Example 56, 6-fluoro-2-(((2-(isoindolin-2-yl)-2-oxoethyl)(methyl)amino)methyl)quinazolin-4(3H)-one] here?
**A.** The value was “A (ΔTm GALC > 1 is shown as A)”.

**Q.** How did the “DSF Activity range” value turn out when CN(CC(=O)N1CCc2ccccc21)Cc1nc2ccc(F)cc2c(=O)[nH]1 [Example 57, 6-fluoro-2-(((2-(indolin-1-yl)-2-oxoethyl)(methyl)amino)methyl)quinazolin-4(3H)-one] was run?
**A.** The value was “B (ΔTm GALC between 0.5 and 1 is shown as B)”.

**Q.** How did the “DSF Activity range” value turn out when CN(CC(=O)N(C)c1ccc(Cl)c(Cl)c1)Cc1nc2ccc(F)cc2c(=O)[nH]1 [Example 58, N-(3,4-dichlorophenyl)-2-(((6-fluoro-4-oxo-3,4-dihydroquinazolin-2-yl)methyl)(methyl)amino)-N-methylacetamide] was run?
**A.** The value was “B (ΔTm GALC between 0.5 and 1 is shown as B)”.

**Q.** For CN(CC(=O)N(C)c1ccccc1Cl)Cc1nc2ccc(F)cc2c(=O)[nH]1 [Example 59], which “DSF Activity range” value is on record?
**A.** Its value is “B (ΔTm GALC between 0.5 and 1 is shown as B)”.

**Q.** CCN(CC(=O)N(C)c1ccccc1Cl)Cc1nc2ccc(F)cc2c(=O)[nH]1 [Example 60] was tested. Which “DSF Activity range” value did it give?
**A.** Its value is “B (ΔTm GALC between 0.5 and 1 is shown as B)”.

**Q.** Which “DSF Activity range” value does the source give for CN(C(=O)CN(Cc1nc2ccc(F)cc2c(=O)[nH]1)C1CC1)c1ccccc1Cl [Example 61] here?
**A.** Its value is “D (ΔTm GALC less than 0.1 is shown as D)”.

**Q.** For CCCN(CC(=O)N(C)c1ccccc1Cl)Cc1nc2ccc(F)cc2c(=O)[nH]1 [Example 62], which “DSF Activity range” value is on record?
**A.** The value was “B (ΔTm GALC between 0.5 and 1 is shown as B)”.

**Q.** For CN(CC(=O)N(C)c1ccccc1Cl)Cc1nc2cc(F)ccc2c(=O)[nH]1 [Example 63], which “DSF Activity range” value is on record?
**A.** The value was “B (ΔTm GALC between 0.5 and 1 is shown as B)”.

**Q.** CCN(CC(=O)N(C)c1ccccc1Cl)Cc1nc2cc(F)ccc2c(=O)[nH]1.Cl [Example 64] was tested. Which “DSF Activity range” value did it give?
**A.** Its value is “B (ΔTm GALC between 0.5 and 1 is shown as B)”.

**Q.** Which “DSF Activity range” value does the source give for CN(C(=O)CN(Cc1nc2cc(F)ccc2c(=O)[nH]1)C1CC1)c1ccccc1Cl [Example 65] here?
**A.** The value was “D (ΔTm GALC less than 0.1 is shown as D)”.

**Q.** With Cc1ccc2nc(CN(C)CC(=O)N(C)c3ccccc3Cl)[nH]c(=O)c2c1 [Example 66] as the compound, how does the “DSF Activity range” value read?
**A.** The value was “B (ΔTm GALC between 0.5 and 1 is shown as B)”.

**Q.** For CCN(CC(=O)N(C)c1nc(C)cs1)Cc1nc2ccc(F)cc2c(=O)[nH]1 [Example 67, 2-(ethyl((6-fluoro-4-oxo-3,4-dihydroquinazolin-2-yl)methyl)amino)-N-methyl-N-(4-methylthiazol-2-yl)acetamide], which “DSF Activity range” value is on record?
**A.** Its value is “B (ΔTm GALC between 0.5 and 1 is shown as B)”.

**Q.** How did the “DSF Activity range” value turn out when Cc1csc(N(C)C(=O)CN(C)Cc2nc3cc(F)ccc3c(=O)[nH]2)n1 [Example 68] was run?
**A.** The value was “C (ΔTm GALC between 0.1 and 0.5 is shown as C)”.

**Q.** CCN(CC(=O)N(C)c1c(Cl)cccc1Cl)Cc1nc2ccc(F)cc2c(=O)[nH]1 [Example 69, 2-(N-ethyl-N-((6-fluoro-3,4-dihydro-4-oxoquinazolin-2-yl)methyl)amino)-N-(2,6-dichlorophenyl)-N-methylacetamide] was tested. Which “DSF Activity range” value did it give?
**A.** The value was “C (ΔTm GALC between 0.1 and 0.5 is shown as C)”.

**Q.** For Cc1ccc2c(=O)[nH]c(CN(C)CC(=O)N(C)c3ccccc3Cl)nc2c1 [Example 70, 2-(N-((3,4-dihydro-7-methyl-4-oxoquinazolin-2-yl)methyl)-N-methylamino)-N-(2-chlorophenyl)-N-methylacetamide], which “DSF Activity range” value is on record?
**A.** Its value is “B (ΔTm GALC between 0.5 and 1 is shown as B)”.

**Q.** With CN(CC(=O)N1Cc2ccccc2C1)Cc1nc2cc(F)ccc2c(=O)[nH]1 [Example 71, 7-fluoro-2-(((2-(isoindolin-2-yl)-2-oxoethyl)(methyl)amino)methyl)quinazolin-4(3H)-one] as the compound, how does the “DSF Activity range” value read?
**A.** Its value is “A (ΔTm GALC > 1 is shown as A)”.

**Q.** How did the “DSF Activity range” value turn out when CCN(CC(=O)N(C)c1c(Cl)cccc1Cl)Cc1nc2cc(F)ccc2c(=O)[nH]1 [Example 73, 2-(N-ethyl-N-((7-fluoro-3,4-dihydro-4-oxoquinazolin-2-yl)methyl)amino)-N-(2,6-dichlorophenyl)-N-methylacetamide] was run?
**A.** The value was “C (ΔTm GALC between 0.1 and 0.5 is shown as C)”.

**Q.** For CN(CC(=O)N(C)c1cccc(F)c1)Cc1nc2ccc(F)cc2c(=O)[nH]1 [Example 74], which “DSF Activity range” value is on record?
**A.** The value was “B (ΔTm GALC between 0.5 and 1 is shown as B)”.

**Q.** Which “DSF Activity range” value does the source give for CN(CC(=O)N(C)c1ccc(Cl)c(Cl)c1)Cc1nc2cc(F)ccc2c(=O)[nH]1 [Example 75] here?
**A.** The value was “B (ΔTm GALC between 0.5 and 1 is shown as B)”.

**Q.** Which “DSF Activity range” value does the source give for CCCN(CC(=O)N(C)c1ccccc1Cl)Cc1nc2cc(F)ccc2c(=O)[nH]1 [Example 76] here?
**A.** Its value is “D (ΔTm GALC less than 0.1 is shown as D)”.

**Q.** With CN(CC(=O)N(C)c1cccc(F)c1)Cc1nc2cc(F)ccc2c(=O)[nH]1 [Example 77] as the compound, how does the “DSF Activity range” value read?
**A.** Its value is “C (ΔTm GALC between 0.1 and 0.5 is shown as C)”.

**Q.** Which “DSF Activity range” value does the source give for Cc1ccc2nc(CN(CC(=O)N(C)c3ccccc3Cl)C3CC3)[nH]c(=O)c2c1 [Example 78, 2-(N-cyclopropyl-N-((3,4-dihydro-6-methyl-4-oxoquinazolin-2-yl)methyl)amino)-N-(2-chlorophenyl)-N-methylacetamide] here?
**A.** Its value is “D (ΔTm GALC less than 0.1 is shown as D)”.

**Q.** CCN(CC(=O)N(C)c1ccccc1Cl)Cc1nc2ccc(C)cc2c(=O)[nH]1 [Example 79] was tested. Which “DSF Activity range” value did it give?
**A.** The value was “C (ΔTm GALC between 0.1 and 0.5 is shown as C)”.

**Q.** For CCCN(CC(=O)N(C)c1ccccc1Cl)Cc1nc2ccc(C)cc2c(=O)[nH]1 [Example 80], which “DSF Activity range” value is on record?
**A.** Its value is “B (ΔTm GALC between 0.5 and 1 is shown as B)”.

**Q.** Which “DSF Activity range” value does the source give for Cc1ccc2nc(CN(C)CC(=O)N3CCc4ccccc43)[nH]c(=O)c2c1 [Example 81] here?
**A.** The value was “C (ΔTm GALC between 0.1 and 0.5 is shown as C)”.

**Q.** How did the “DSF Activity range” value turn out when Cc1ccc2nc(CN(C)CC(=O)N(C)c3cccc(F)c3)[nH]c(=O)c2c1 [Example 82] was run?
**A.** The value was “B (ΔTm GALC between 0.5 and 1 is shown as B)”.

**Q.** Cc1ccc2c(=O)[nH]c(CN(CC(=O)N(C)c3ccccc3Cl)C3CC3)nc2c1 [Example 83] was tested. Which “DSF Activity range” value did it give?
**A.** The value was “D (ΔTm GALC less than 0.1 is shown as D)”.

**Q.** CCN(CC(=O)N(C)c1ccccc1Cl)Cc1nc2cc(C)ccc2c(=O)[nH]1 [Example 84] was tested. Which “DSF Activity range” value did it give?
**A.** The value was “C (ΔTm GALC between 0.1 and 0.5 is shown as C)”.

**Q.** Which “DSF Activity range” value does the source give for CCCN(CC(=O)N(C)c1ccccc1Cl)Cc1nc2cc(C)ccc2c(=O)[nH]1 [Example 85] here?
**A.** The value was “B (ΔTm GALC between 0.5 and 1 is shown as B)”.

**Q.** Cc1ccc2c(=O)[nH]c(CN(C)CC(=O)N3CCc4ccccc43)nc2c1 [Example 86] was tested. Which “DSF Activity range” value did it give?
**A.** Its value is “D (ΔTm GALC less than 0.1 is shown as D)”.

**Q.** With Cc1ccc2c(=O)[nH]c(CN(C)CC(=O)N(C)c3cccc(F)c3)nc2c1 [Example 87, 2-(N-((3,4-dihydro-7-methyl-4-oxoquinazolin-2-yl)methyl)-N-methylamino)-N-(3-fluorophenyl)-N-methylacetamide] as the compound, how does the “DSF Activity range” value read?
**A.** Its value is “D (ΔTm GALC less than 0.1 is shown as D)”.
